Reference: ChEMBL document CHEMBL1201862, “PubChem BioAssay data set” (2004)
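In this assay, cells in 96-well plates receive the compound at five concentrations for 48 hours. Endpoints are linearly interpolated between the surrounding concentrations. Abbreviation: GI50, concentration required for 50% inhibition of growth.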 Calls of active or inactive are those of the source. Cut-off read from the data, not from the text of the source: active = GI50 up to about 1.1 µM and inactive = higher.

Experiments:
Test in all cases: growth of human tumour cells (NCI), 48 h
CCRF-CEM = test system: CCRF-CEM
HCT-116 = test system: HCT-116
K562 = test system: K562
LOX IMVI = test system: LOX IMVI
MOLT-4 = test system: MOLT-4
OVCAR-4 = test system: OVCAR-4
OVCAR-5 = test system: OVCAR-5
OVCAR-8 = test system: OVCAR-8
SF-268 = test system: SF-268
SF-539 = test system: SF-539
SK-MEL-28 = test system: SK-MEL-28
SK-MEL-2 = test system: SK-MEL-2
SNB-19 = test system: SNB-19
SNB-78 = test system: SNB-78
TK-10 = test system: TK-10
UO-31 = test system: UO-31
UACC-62 = test system: UACC-62

Measured: GI50

CC1=NN(C(=O)Cc2ccccc2)C(=O)/C1=C\C=C\c1ccccc1
inactive: CCRF-CEM > 100 µM | HCT-116 > 100 µM | K562 > 100 µM | LOX IMVI > 100 µM | MOLT-4 > 100 µM | OVCAR-4 > 100 µM | OVCAR-5 > 100 µM | OVCAR-8 > 100 µM | SF-268 > 100 µM | SF-539 > 100 µM | SK-MEL-28 > 100 µM | SK-MEL-2 > 100 µM | SNB-19 > 100 µM | SNB-78 83.6 µM | TK-10 > 100 µM | UO-31 > 100 µM

O=C(O)CP(=S)(S)c1ccccc1 (configuration not stated)
inactive: CCRF-CEM > 100 µM | K562 > 100 µM | LOX IMVI > 100 µM | MOLT-4 > 100 µM | OVCAR-4 > 100 µM | OVCAR-8 > 100 µM | SF-268 > 100 µM | SF-539 > 100 µM | SK-MEL-28 > 100 µM | SK-MEL-2 > 100 µM | SNB-19 > 100 µM | SNB-78 > 100 µM | TK-10 > 100 µM | UACC-62 > 100 µM | UO-31 > 100 µM

COc1ccc2c([nH]c3c(O)c(-c4c(C)cc5c([nH]c6c(CC=C(C)C)c(OC)ccc65)c4O)c(C)cc32)c1CC=C(C)C [BISMURRAYAFOLINE B]
inactive: CCRF-CEM > 100 µM | HCT-116 > 100 µM | K562 > 100 µM | LOX IMVI > 100 µM | MOLT-4 > 100 µM | OVCAR-4 > 100 µM | OVCAR-5 > 100 µM | OVCAR-8 > 100 µM | SF-268 > 100 µM | SF-539 > 100 µM | SK-MEL-28 > 100 µM | SK-MEL-2 > 100 µM | SNB-19 > 100 µM | SNB-78 > 100 µM | TK-10 > 100 µM | UACC-62 > 100 µM | UO-31 > 100 µM

COc1cc(C(C)c2cc3c(cc2OCCCCOc2cc4c(cc2C(C)c2cc(OC)c(OC)c(OC)c2)OCO4)OCO3)cc(OC)c1OC (configuration not stated)
inactive: CCRF-CEM 48.3 µM | HCT-116 31.7 µM | K562 28.2 µM | LOX IMVI > 100 µM | MOLT-4 41.4 µM | OVCAR-4 92.3 µM | OVCAR-5 > 100 µM | OVCAR-8 34.8 µM | SF-268 51.5 µM | SF-539 23.7 µM | SK-MEL-28 71 µM | SK-MEL-2 42.3 µM | SNB-19 > 100 µM | SNB-78 20.1 µM | TK-10 > 100 µM | UACC-62 21.1 µM | UO-31 46.3 µM

c1cc2c(cnc3cscc32)s1
inactive: CCRF-CEM > 100 µM | HCT-116 > 100 µM | K562 > 100 µM | LOX IMVI > 100 µM | MOLT-4 > 100 µM | OVCAR-4 > 100 µM | OVCAR-5 > 100 µM | OVCAR-8 > 100 µM | SF-268 > 100 µM | SF-539 > 100 µM | SK-MEL-28 > 100 µM | SK-MEL-2 > 100 µM | SNB-19 > 100 µM | SNB-78 > 100 µM | TK-10 > 100 µM | UO-31 > 100 µM

CC1CC(c2ccc([N+](=O)[O-])cc2)=Nc2ccccc2S1 (configuration not stated)
inactive: CCRF-CEM 4.32 µM | HCT-116 1.75 µM | K562 6.04 µM | LOX IMVI 6.89 µM | MOLT-4 18.1 µM | OVCAR-4 16.7 µM | OVCAR-5 23.9 µM | OVCAR-8 25.9 µM | SF-268 17.3 µM | SF-539 16.9 µM | SK-MEL-28 17.9 µM | SNB-19 16.7 µM | SNB-78 67.5 µM | TK-10 28.2 µM | UACC-62 14 µM | UO-31 11.8 µM

C/C(=N\N(C)C)C(CN1CCCCC1)C(c1ccccc1)c1c(O)c2ccccc2oc1=O (configuration not stated)
inactive: CCRF-CEM > 100 µM | HCT-116 > 100 µM | K562 > 100 µM | LOX IMVI > 100 µM | MOLT-4 > 100 µM | OVCAR-4 > 100 µM | OVCAR-5 > 100 µM | OVCAR-8 > 100 µM | SF-268 > 100 µM | SF-539 > 100 µM | SK-MEL-28 > 100 µM | SK-MEL-2 > 100 µM | SNB-19 > 100 µM | SNB-78 > 100 µM | TK-10 > 100 µM | UACC-62 80.4 µM | UO-31 32.6 µM

Cc1ccc(NS(=O)(=O)c2cc(C(C)(C)C)ccc2OCCOCCOCCOc2ccc(C(C)(C)C)cc2S(=O)(=O)Nc2ccc(C)cc2)cc1
inactive: CCRF-CEM > 100 µM | HCT-116 > 100 µM | K562 > 100 µM | LOX IMVI > 100 µM | MOLT-4 > 100 µM | OVCAR-4 > 100 µM | OVCAR-5 > 100 µM | OVCAR-8 > 100 µM | SF-268 > 100 µM | SF-539 > 100 µM | SK-MEL-28 > 100 µM | SK-MEL-2 > 100 µM | SNB-19 > 100 µM | SNB-78 > 100 µM | TK-10 > 100 µM | UACC-62 > 100 µM | UO-31 > 100 µM

COC(=O)C1=C(C)N(NC(N)=O)C2(N)N(NC(N)=O)C(C)=C(C(=O)OC)C12C#N (configuration not stated)
inactive: CCRF-CEM > 100 µM | HCT-116 > 100 µM | K562 > 100 µM | LOX IMVI > 100 µM | MOLT-4 > 100 µM | OVCAR-4 > 100 µM | OVCAR-5 > 100 µM | OVCAR-8 > 100 µM | SF-268 > 100 µM | SF-539 > 100 µM | SK-MEL-28 > 100 µM | SK-MEL-2 > 100 µM | SNB-19 > 100 µM | SNB-78 > 100 µM | TK-10 > 100 µM | UACC-62 > 100 µM | UO-31 > 100 µM

S=c1nc2c(c[nH]1)C1c3ccccc3C2c2ccccc21
inactive: CCRF-CEM 55 µM | HCT-116 > 100 µM | K562 45.6 µM | LOX IMVI > 100 µM | MOLT-4 31.8 µM | OVCAR-4 39.2 µM | OVCAR-5 > 100 µM | OVCAR-8 > 100 µM | SF-268 > 100 µM | SF-539 > 100 µM | SK-MEL-28 > 100 µM | SK-MEL-2 57.7 µM | SNB-19 82.4 µM | SNB-78 > 100 µM | TK-10 > 100 µM | UACC-62 59.6 µM | UO-31 39.5 µM

CC1=C(C(=O)Nc2ccc([N+](=O)[O-])cc2)C(c2cccc([N+](=O)[O-])c2)C(C(=O)Nc2ccc([N+](=O)[O-])cc2)=C(C)N1
inactive: CCRF-CEM 12.6 µM | HCT-116 5.97 µM | K562 9.93 µM | LOX IMVI 11.1 µM | MOLT-4 5.35 µM | OVCAR-4 48.6 µM | OVCAR-5 > 100 µM | OVCAR-8 17.8 µM | SF-268 21.6 µM | SF-539 60.3 µM | SK-MEL-28 30.7 µM | SK-MEL-2 33.1 µM | SNB-19 52.7 µM | SNB-78 > 100 µM | TK-10 37.5 µM | UACC-62 5.28 µM | UO-31 > 100 µM

Nc1ncnc2c1ncn2CC(O)CO (configuration not stated)
inactive: CCRF-CEM > 100 µM | HCT-116 > 100 µM | K562 > 100 µM | LOX IMVI > 100 µM | MOLT-4 > 100 µM | OVCAR-4 > 100 µM | OVCAR-8 > 100 µM | SF-268 > 100 µM | SF-539 > 100 µM | SK-MEL-28 > 100 µM | SK-MEL-2 > 100 µM | SNB-19 > 100 µM | SNB-78 > 100 µM | TK-10 > 100 µM | UACC-62 > 100 µM | UO-31 > 100 µM

CC(C)(C)C1CCC2(CC1)c1[nH]c3ccccc3c1C1(CCC(C(C)(C)C)CC1)c1[nH]c3ccccc3c12 (configuration not stated)
inactive: CCRF-CEM > 100 µM | HCT-116 41.6 µM | K562 > 100 µM | LOX IMVI > 100 µM | MOLT-4 > 100 µM | OVCAR-4 > 100 µM | OVCAR-5 > 100 µM | OVCAR-8 > 100 µM | SF-268 > 100 µM | SF-539 > 100 µM | SK-MEL-28 > 100 µM | SK-MEL-2 > 100 µM | SNB-19 > 100 µM | SNB-78 > 100 µM | TK-10 > 100 µM | UACC-62 > 100 µM | UO-31 > 100 µM

N#Cc1cccc(/C=N/C23CC4CC(CC(C4)C2)C3)c1
inactive: CCRF-CEM 62.5 µM | HCT-116 57.3 µM | K562 38.4 µM | LOX IMVI > 100 µM | MOLT-4 99.1 µM | OVCAR-4 > 100 µM | OVCAR-5 > 100 µM | OVCAR-8 > 100 µM | SF-268 > 100 µM | SF-539 > 100 µM | SK-MEL-28 > 100 µM | SK-MEL-2 > 100 µM | SNB-19 > 100 µM | SNB-78 > 100 µM | TK-10 > 100 µM | UACC-62 > 100 µM | UO-31 > 100 µM

COC(=O)C1=C(c2ccc(OC)c(OC)c2)OC(c2cc(OC)c(OC)c(OC)c2)C1 (configuration not stated)
inactive: CCRF-CEM > 100 µM | K562 > 100 µM | LOX IMVI 99.5 µM | OVCAR-4 16.1 µM | OVCAR-5 > 100 µM | OVCAR-8 25.9 µM | SF-268 27.9 µM | SF-539 30.2 µM | SK-MEL-28 > 100 µM | SK-MEL-2 20.1 µM | SNB-78 22.8 µM | TK-10 39.2 µM | UO-31 > 100 µM

COC12CC(O)=C(C(C)=O)C(=O)C1(C)c1c(OC(C)=O)c(C)c(O)c(C(C)=O)c1O2 (configuration not stated)
inactive: CCRF-CEM 8.41 µM | HCT-116 21 µM | K562 16.9 µM | LOX IMVI 10.2 µM | MOLT-4 18.6 µM | OVCAR-4 18.7 µM | OVCAR-5 31.9 µM | OVCAR-8 10.8 µM | SF-268 23.6 µM | SF-539 21.6 µM | SK-MEL-28 16 µM | SK-MEL-2 19 µM | SNB-19 4.98 µM | SNB-78 27.7 µM | TK-10 25.4 µM | UACC-62 4.98 µM | UO-31 4.35 µM
